These results are taken from paper PMC4833640 (Journal of Medicinal Chemistry, 2016).

A short description of one data set: physchem. As to conditions: measured pKa values.
Data set [1] in a line: Colorimetric hydrogen-bond assay with pyrazinone sensor. Format: physicochemical. To be noted: blue-shift of λmax of the sensor, compared with carboxylic acid 1.
The conditions of data set [2]: reason why data were considered unreliable.
For data set [3] the following is noted: 24 h incubation, aqueous buffer pH 7.4.

Take `O=C(CCc1ccccc1)NO` [Compound 2, N-(Hydroxy)-3-phenylpropanamide]: the pKa (as a rule, the pH at which an ionisable group is half protonated) in “physchem” was above 8.

Compound `CC(=O)N(O)CCc1ccccc1` [Compound 3, N-Hydroxy-N-phenethylacetamide] had a pKa in the data set “physchem” above 8.

The compound `CONC(=O)CCc1ccccc1` [Compound 4, N-Methoxy-3-phenylpropanamide] returned a pKa in the data set “physchem” above 8.

In the data set “physchem”, `CC(=O)NOCCc1ccccc1` [Compound 5, N-Phenethoxyacetamide] returned a pKa above 8.

Compound `NS(=O)(=O)CCc1ccccc1` [Compound 10, 2-Phenylethane-1-sulfonamide] displayed a pKa in the data set “physchem” above 8.

`CS(=O)(=O)NCCCc1ccccc1` [Compound 11, N-(3-Phenylpropyl)methanesulfonamide] showed a pKa in the data set “physchem” above 8.

In “physchem”, `CC(=O)NC(=O)NCc1ccccc1` [Compound 15, N-(Benzylcarbamoyl)acetamide] returned a pKa above 8.

Consider `c1ccc(CCc2nnn[nH]2)cc1` [Compound 16, 5-Phenethyl-1H-tetrazole], for which the “hydrogen-bond (HB) interaction with pyrazinone sensor” value in data set [1] was “significantly stronger HB interactions than the corresponding carboxylic acid”.

In “physchem”, `S=c1[nH]c(CCc2ccccc2)no1` [Compound 22, 3-Phenethyl-1,2,4-oxadiazole-5(4H)-thione] registered a pKa below 4.

Consider `O=c1c(O)c(Cc2ccccc2)c1=O` [Compound 30, 3-Benzyl-4-hydroxycyclobut-3-ene-1,2-dione], for which the pKa in the data set “physchem” is below 4.

For `O=c1c(O)c(NCc2ccccc2)c1=O` [Compound 31, 3-(Benzylamino)-4-hydroxycyclobut-3-ene-1,2-dione], the pKa in the data set “physchem” was below 4.

For `Oc1c(F)cc(Cc2ccccc2)cc1F` [Compound 32, 4-Benzyl-2,6-difluorophenol], in data set [2], the “PAMPA assay observation on the donor plate” value is recorded as “high nonspecific binding”.

With `Oc1c(F)ccc(Cc2ccccc2)c1F` [Compound 33, 3-Benzyl-2,6-difluorophenol], the “PAMPA assay observation on the donor plate” value in data set [2] is reported as “compound precipitation”.

With `Oc1ccccc1SCc1ccccc1` [Compound 34, 2-(Benzylthio)phenol], the “detection after incubation in aqueous buffer (stability)” value in data set [3] is on record as “not detected after the 24 h incubation in aqueous buffer”.
